PMC6151383 (Molecules : A Journal of Synthetic Chemistry and Natural …, 2017)
Values after ≈ are worked out from the molar mass of the structure shown. Like-named read-outs stand apart in the source and are kept apart here.

Key:
Candida krusei E28 = assay: Antifungal microdilution broth MIC, C. krusei; type: cell-based; conditions: Pichia kudriavzevii
M. tuberculosis and NTM = assay: Antimycobacterial activity, panel; type: cell-based; conditions: Mycobacterium tuberculosis
[1] = system: Pseudomonas aeruginosa CCM 1961; assay: Antibacterial microdilution broth MIC, P. aeruginosa; type: cell-based; conditions: Pseudomonas aeruginosa
[2] = system: Gram-positive and Gram-negative bacteria; conditions: both Gram-positive and Gram-negative bacteria; cited from earlier work
[3] = system: Mycobacterium avium 330/88; assay: In vitro antimycobacterial MIC, M. avium; type: cell-based
[4] = system: Staphylococcus epidermidis H 6966/08; assay: Antibacterial microdilution broth MIC, S. epidermidis; type: cell-based; conditions: Staphylococcus epidermidis
[5] = system: Klebsiella pneumoniae D 11750/08
[6] = system: ESBL-positive Klebsiella pneumoniae J 14368/08
[7] = system: Candida albicans ATCC 44859; assay: Antifungal microdilution broth MIC, C. albicans; type: cell-based
[8] = system: Lichtheimia corymbifera 272; assay: Antifungal microdilution broth MIC, L. corymbifera; type: cell-based
[9] = system: Mycobacterium tuberculosis 331/88 (H37Rv); assay: In vitro antimycobacterial MIC, M. tuberculosis; type: cell-based
[10] = system: Aspergillus fumigatus 231; assay: Antifungal microdilution broth MIC, A. fumigatus; type: cell-based
[11] = system: Escherichia coli CCM 4517; assay: Antibacterial microdilution broth MIC, E. coli; type: cell-based; conditions: Escherichia coli
[12] = system: Trichophyton interdigitale 445; assay: Antifungal microdilution broth MIC, T. interdigitale; type: cell-based
[13] = system: Mycobacterium kansasii 235/80; assay: In vitro antimycobacterial MIC, M. kansasii 235/80; type: cell-based
[14] = system: Enterococcus faecalis J 14365/08; assay: Antibacterial microdilution broth MIC, E. faecalis; type: cell-based; conditions: Enterococcus faecalis
Candida sp. = assay: Selectivity index for Candida sp. (IC50 HepG2/MIC); type: cell-based; conditions: all Candida species
Candida glabrata 20/I = assay: Antifungal microdilution broth MIC, C. glabrata; type: cell-based; conditions: Nakaseomyces glabratus
M. kansasii 6509/96 = assay: In vitro antimycobacterial MIC, M. kansasii clinical isolate; type: cell-based; conditions: Mycobacterium kansasii
Candida tropicalis 156 = assay: Antifungal microdilution broth MIC, C. tropicalis; type: cell-based
[15] = system: Staphylococcus aureus CCM 4516/08; assay: Antibacterial microdilution broth MIC, S. aureus; type: cell-based; conditions: Staphylococcus aureus
Trichosporon asahii 1188 = assay: Antifungal microdilution broth MIC, T. asahii; type: cell-based
[16] = system: Klebsiella pneumoniae D 11750/08; assay: Antibacterial microdilution broth MIC, K. pneumoniae; conditions: 48 h incubation
[17] = 330/88, 336 h, 14 d incubation, read-out: MIC M. avium 330/88 14 d
[18] = 330/88, 504 h, 21 d incubation, read-out: MIC M. avium 330/88 21 d
[19] = 336 h, 14 d incubation, read-out: MIC Mtb. 331/88 14 d
[20] = 504 h, 21 d incubation, read-out: MIC Mtb. 331/88 21 d
[21] = Trichophyton interdigitale, 445, 72 h, read-out: MIC TI 72 h
[22] = Trichophyton interdigitale, 445, 120 h, read-out: MIC TI 120 h
[23] = Trichophyton interdigitale, 445, read-out: MIC for T. interdigitale
[24] = 235/80, 168 h, 7 d incubation, read-out: MIC M. kansasii 235/80 7 d
[25] = 235/80, 336 h, 14 d incubation, read-out: MIC M. kansasii 235/80 14 d
[26] = 235/80, 504 h, 21 d incubation, read-out: MIC M. kansasii 235/80 21 d
[27] = 6509/96, 168 h, 7 d incubation, read-out: MIC M. kansasii 6509/96 7 d
[28] = 6509/96, 336 h, 14 d incubation, read-out: MIC M. kansasii 6509/96 14 d
[29] = 6509/96, 504 h, 21 d incubation, read-out: MIC M. kansasii 6509/96 21 d

## O=S(=O)(Nc1ncccn1)c1ccc(N=Cc2ccccc2O)cc1 [Compound 2a, 4-[(2-Hydroxybenzylidene)amino]-N-(pyrimidin-2-yl)benzenesulfonamide]
Candida krusei E28; E28, 48 h incubation, read-out: MIC CK 48 h
  MIC: > 500 µM
M. tuberculosis and NTM; M. tuberculosis and both M. kansasii strains only, read-out: MIC, M. tuberculosis and both M. kansasii strains
  MIC: ≤ 32 µM
M. tuberculosis and NTM; range over all four mycobacterial strains and incubation times, read-out: MIC, M. tuberculosis and NTM
  MIC: 8 to 250 µM (≈ 2.84 to 88.6 µg/mL)
[1]; CCM1961, 48 h incubation, read-out: MIC PA 48 h
  MIC: 500 µM (≈ 177 µg/mL)
[2]
  minimum inhibitory concentrations (MICs): 100 to 250 µg/mL
[3]; [17]
  MIC: 125 µM (≈ 44.3 µg/mL)
[3]; [18]
  MIC: 250 µM (≈ 88.6 µg/mL)
[4]; H6966/08, 48 h incubation, read-out: MIC SE 48 h
  MIC: 62.5 µM (≈ 22.1 µg/mL)
[5]; 24 h
  MIC KP 24 h: >500 µM
[5]; 48 h
  MIC KP 48 h: >500 µM
[6]; 24 h
  MIC KP-E 24 h: >500 µM
[6]; 48 h
  MIC KP-E 48 h: >500 µM
[7]; ATCC44859, 48 h incubation, read-out: MIC CA 48 h
  MIC: > 500 µM
[8]; Lichtheimia corymbifera, 272, 48 h incubation, read-out: MIC LC 48 h
  MIC: > 500 µM
[9]; [19]
  MIC: 16 µM (≈ 5.67 µg/mL)
[9]; [20]
  MIC: 32 µM (≈ 11.3 µg/mL)
[10]; Aspergillus fumigatus, 231, 48 h incubation, read-out: MIC AF 48 h
  MIC: > 500 µM
[11]; CCM4517, 48 h incubation, read-out: MIC EC 48 h
  MIC: > 500 µM
[12]; [21]
  MIC: 125 µM (≈ 44.3 µg/mL)
[12]; [22]
  MIC: 125 µM (≈ 44.3 µg/mL)
[12]; [23]
  MIC: 125 µM (≈ 44.3 µg/mL)
[13]; [24]
  MIC: 8 µM (≈ 2.84 µg/mL)
[13]; [25]
  MIC: 16 µM (≈ 5.67 µg/mL)
[13]; [26]
  MIC: 32 µM (≈ 11.3 µg/mL)
[14]; J14365/08, 48 h incubation, read-out: MIC EF 48 h
  MIC: 62.5 µM (≈ 22.1 µg/mL)
Candida sp.
  SI for Candida sp.: inactive
Candida glabrata 20/I; 48 h incubation, read-out: MIC CG 48 h
  MIC: > 500 µM
M. kansasii 6509/96; [27]
  MIC: 8 µM (≈ 2.84 µg/mL)
M. kansasii 6509/96; [28]
  MIC: 16 µM (≈ 5.67 µg/mL)
M. kansasii 6509/96; [29]
  MIC: 32 µM (≈ 11.3 µg/mL)
Candida tropicalis 156; Candida tropicalis, 156, 48 h incubation, read-out: MIC CT 48 h
  MIC: > 500 µM
[15]; CCM4516, 48 h incubation, read-out: MIC SA 48 h
  MIC: 500 µM (≈ 177 µg/mL)
Trichosporon asahii 1188; Trichosporon asahii, 1188, 48 h incubation, read-out: MIC TA 48 h
  MIC: > 500 µM

## CC(C)(C)c1ccc(O)c(C=Nc2ccc(S(=O)(=O)Nc3ncccn3)cc2)c1 [Compound 2j, 4-{[5-(Tert-butyl)-2-hydroxybenzylidene]amino}-N-(pyrimidin-2-yl)benzenesulfonamide]
Candida krusei E28; E28, 24 h, read-out: MIC CK 24 h
  MIC: > 125 µM
Candida krusei E28; E28, 48 h, read-out: MIC CK 48 h
  MIC: > 125 µM
[1]; CCM1961, 24 h, read-out: MIC PA 24 h
  MIC: > 125 µM
[1]; CCM1961, 48 h, read-out: MIC PA 48 h
  MIC: > 125 µM
[3]; [17]
  MIC: 125 µM (≈ 51.3 µg/mL)
[3]; [18]
  MIC: 125 µM (≈ 51.3 µg/mL)
[4]; H6966/08, 24 h, read-out: MIC SE 24 h
  MIC: > 125 µM
[4]; H6966/08, 48 h, read-out: MIC SE 48 h
  MIC: > 125 µM
[6]; 48 h incubation
  MIC KP-E 48 h: >125 µM
[7]; ATCC44859, 24 h, read-out: MIC CA 24 h
  MIC: > 125 µM
[7]; ATCC44859, 48 h, read-out: MIC CA 48 h
  MIC: > 125 µM
[8]; Lichtheimia corymbifera, 272, 24 h, read-out: MIC LC 24 h
  MIC: > 125 µM
[8]; Lichtheimia corymbifera, 272, 48 h, read-out: MIC LC 48 h
  MIC: > 125 µM
[9]; [19]
  MIC: 32 µM (≈ 13.1 µg/mL)
[9]; [20]
  MIC: 62.5 µM (≈ 25.7 µg/mL)
[16]
  MIC KP 48 h: >125 µM
[10]; Aspergillus fumigatus, 231, 24 h, read-out: MIC AF 24 h
  MIC: > 125 µM
[10]; Aspergillus fumigatus, 231, 48 h, read-out: MIC AF 48 h
  MIC: > 125 µM
[11]; CCM4517, 24 h, read-out: MIC EC 24 h
  MIC: > 125 µM
[11]; CCM4517, 48 h, read-out: MIC EC 48 h
  MIC: > 125 µM
[12]; [21]
  MIC: 62.5 µM (≈ 25.7 µg/mL)
[12]; [22]
  MIC: 62.5 µM (≈ 25.7 µg/mL)
[12]; [23]
  MIC: 62.5 µM (≈ 25.7 µg/mL)
[13]; [24]
  MIC: 16 µM (≈ 6.57 µg/mL)
[13]; [25]
  MIC: 32 µM (≈ 13.1 µg/mL)
[13]; [26]
  MIC: 62.5 µM (≈ 25.7 µg/mL)
[14]; J14365/08, 24 h, read-out: MIC EF 24 h
  MIC: > 125 µM
[14]; J14365/08, 48 h, read-out: MIC EF 48 h
  MIC: > 125 µM
Candida sp.
  SI for Candida sp.: inactive
Candida glabrata 20/I; 24 h, read-out: MIC CG 24 h
  MIC: > 125 µM
Candida glabrata 20/I; 48 h, read-out: MIC CG 48 h
  MIC: > 125 µM
M. kansasii 6509/96; [27]
  MIC: 16 µM (≈ 6.57 µg/mL)
M. kansasii 6509/96; [28]
  MIC: 16 µM (≈ 6.57 µg/mL)
M. kansasii 6509/96; [29]
  MIC: 32 µM (≈ 13.1 µg/mL)
Candida tropicalis 156; Candida tropicalis, 156, 24 h, read-out: MIC CT 24 h
  MIC: > 125 µM
Candida tropicalis 156; Candida tropicalis, 156, 48 h, read-out: MIC CT 48 h
  MIC: > 125 µM
[15]; CCM4516, 24 h, read-out: MIC SA 24 h
  MIC: > 125 µM
[15]; CCM4516, 48 h, read-out: MIC SA 48 h
  MIC: > 125 µM
Trichosporon asahii 1188; Trichosporon asahii, 1188, 24 h, read-out: MIC TA 24 h
  MIC: > 125 µM
Trichosporon asahii 1188; Trichosporon asahii, 1188, 48 h, read-out: MIC TA 48 h
  MIC: > 125 µM
